Measured values: PMC4794603 (Molecules and Cells, 2016)
Read-outs that look alike come from different tables or passages of the source.

Experiments:
CYP107W1 = target: T1, CYP107W1 (Streptomyces avermitilis, UniProt Q93HJ0); assay: co-crystal structure at […] Å; format: binding
T1 sequence (Q93HJ0 1-404): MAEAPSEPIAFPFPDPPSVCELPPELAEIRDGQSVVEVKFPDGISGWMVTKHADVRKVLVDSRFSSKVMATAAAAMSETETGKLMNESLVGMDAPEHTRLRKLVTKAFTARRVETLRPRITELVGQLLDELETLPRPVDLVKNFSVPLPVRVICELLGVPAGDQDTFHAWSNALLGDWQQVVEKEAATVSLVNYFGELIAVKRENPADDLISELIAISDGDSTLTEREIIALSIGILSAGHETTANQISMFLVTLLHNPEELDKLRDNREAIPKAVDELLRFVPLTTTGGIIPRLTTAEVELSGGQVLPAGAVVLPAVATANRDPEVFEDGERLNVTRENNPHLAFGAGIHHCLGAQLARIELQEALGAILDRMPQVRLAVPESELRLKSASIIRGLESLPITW

CYP107W1 W178G mutant [1] = target: T2, CYP107W1 W178G mutant (Streptomyces avermitilis, UniProt Q93HJ0, W178G); assay: UV-vis spectral binding titration
T2 sequence (Q93HJ0 1-404 W178G): T1 sequence (Q93HJ0 1-404)

CYP107W1 W178G mutant [2] = target: T2, CYP107W1 W178G mutant; assay: UV-vis spectral binding titration; remark: listed apart in the source
[3] = system: [H][C@@]12OC(=O)C=C[C@@H](C)[C@H](O)[C@@H](C)C(=O)[C@@H](C)[C@H](O)[C@@H](C)C(=O)[C@H](C)[C@H](O)[C@@H](C)CC=CC=C[C@@H](CC)CC[C@@]([H])(O[C@@]3(CC[C@@H](C)[C@@H](C[C@H](C)O)O3)[C@@H]1C)[C@@H]2C; assay: purified protein; details: heme

In the case of `CC[C@H]1/C=C\C=C\C[C@@H](C)[C@H](O)[C@@](C)(O)C(=O)[C@@H](C)[C@H](O)[C@@H](C)C(=O)[C@@H](C)[C@H](O)[C@@H](C)/C=C/C(=O)O[C@@H]2[C@H](C)[C@H](CC1)O[C@]1(CC[C@H](C)[C@H](C[C@@H](C)O)O1)[C@H]2C` [OliA, oligomycin A], the “co-crystal structure at 2.6 Å” value (CYP107W1) is reported as “Coordinates and structure factors of CYP107W1-OliA have been deposited in the Protein Data Bank with accession number 4WQ0”.

`Clc1ccc(COC(Cn2ccnc2)c2ccc(Cl)cc2Cl)cc1` (centres unmarked) [econazole] showed a Kd (CYP107W1 W178G mutant [1]) of 5.3 ± 0.4 µM.

Work on `Clc1ccc(COC(Cn2ccnc2)c2ccc(Cl)cc2Cl)c(Cl)c1` (centres unmarked) [miconazole] yielded a Kd (CYP107W1 W178G mutant [1]) of 3.1 ± 0.3 µM.

Compound `CC[C@@H]1/C=C/C=C/C[C@H](C)[C@H](O)[C@](C)(O)C(=O)[C@H](C)[C@@H](O)[C@H](C)C(=O)[C@H](C)[C@@H](O)[C@H](C)/C=C/C(=O)O[C@H]2[C@@H](C)[C@@H](CC1)O[C@@]1(CC[C@@H](C)[C@@H](C[C@H](C)O)O1)[C@@H]2C` [oligomycin A] has a Kd (CYP107W1 W178G mutant [2]) of 4.3 ± 0.7 µM.

“CYP107W1 W178G mutant (Streptomyces avermitilis; W178G)” showed a Km [3] of 3.4 ± 0.4 µM.
